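Briefly, cells in 96-well plates were exposed to five compound concentrations for 48 h, and endpoints were estimated by linear interpolation. At the TGI there is no net growth.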
Experiments:
Test in all cases: growth of human tumour cells (NCI), 48 h
SNB-75 CNS = test system: SNB-75 CNS
HCC-2998 colon = test system: HCC-2998 colon
CCRF-CEM leukemia = test system: CCRF-CEM leukemia
MDA-MB-435 = test system: MDA-MB-435
A498 renal = test system: A498 renal
NCI-H23 lung = test system: NCI-H23 lung
SK-MEL-5 melanoma = test system: SK-MEL-5 melanoma
MDA-N = test system: MDA-N
MCF7 breast = test system: MCF7 breast
786-0 renal = test system: 786-0 renal
MOLT-4 leukemia = test system: MOLT-4 leukemia
HCT-116 colon = test system: HCT-116 colon
MDA-MB-231 breast = test system: MDA-MB-231 breast
TK-10 renal = test system: TK-10 renal
NCI/ADR-RES ovarian = test system: NCI/ADR-RES ovarian
SK-MEL-2 melanoma = test system: SK-MEL-2 melanoma
NCI-H522 lung = test system: NCI-H522 lung
HS 578T breast = test system: HS 578T breast
UACC-62 melanoma = test system: UACC-62 melanoma
SR leukemia = test system: SR leukemia

| SMILES | TGI (SNB-75 CNS) [µM] | TGI (HCC-2998 colon) [µM] | TGI (CCRF-CEM leukemia) [µM] | TGI (MDA-MB-435) [µM] | TGI (A498 renal) [µM] | TGI (NCI-H23 lung) [µM] | TGI (SK-MEL-5 melanoma) [µM] | TGI (MDA-N) [µM] | TGI (MCF7 breast) [µM] | TGI (786-0 renal) [µM] | TGI (MOLT-4 leukemia) [µM] | TGI (HCT-116 colon) [µM] | TGI (MDA-MB-231 breast) [µM] | TGI (TK-10 renal) [µM] | TGI (NCI/ADR-RES ovarian) [µM] | TGI (SK-MEL-2 melanoma) [µM] | TGI (NCI-H522 lung) [µM] | TGI (HS 578T breast) [µM] | TGI (UACC-62 melanoma) [µM] | TGI (SR leukemia) [µM] |
| --- | --- | --- | --- | --- | --- | --- | --- | --- | --- | --- | --- | --- | --- | --- | --- | --- | --- | --- | --- | --- |
| CC(Cc1ccccc1)Nc1ncnc2c1ncn2C1OC(CO)CC1O (stereo not drawn) | > 100 | > 100 | > 100 | > 100 | > 100 | > 100 | > 100 | > 100 | > 100 | > 100 | > 100 | > 100 | > 100 | > 100 | > 100 | > 100 | > 100 | > 100 | > 100 |  |
| CCCCCC(C/C=N/N(C)C)C(O)(C(F)(F)F)C(F)(F)F (stereo not drawn) | 97.4 | > 100 | 62.7 | > 100 | 56 | > 100 | 30.7 | > 100 |  | > 100 | > 100 | > 100 | 70.6 | > 100 | > 100 | > 100 | > 100 | 91.8 | > 100 | > 100 |
| CN1CCN(C(=S)N(C(=O)c2ccc(Cl)cc2)c2ccccc2)CC1 | > 100 | > 100 |  | > 100 |  | > 100 | > 100 | > 100 | > 100 | > 100 | > 100 |  | > 100 | > 100 |  | > 100 | > 100 | > 100 | > 100 | > 100 |
| C[C@@]1(O)C[C@@H](N2C(=O)O[C@@H](c3ccccc3)[C@H]2c2ccccc2)[C@@H]1COCc1ccccc1 |  | 58.4 |  | > 100 | 52.9 | 43.6 | 27.2 | 38.5 | > 100 | 48.9 | 26.4 | 47.4 | 39.8 | 99.7 | 64.8 | 27.5 | 38.3 | 62.9 | 31.5 | 52.7 |
| O=C1N=C(SC(SC2=NC(=O)C3(NN2)c2ccccc2-c2ccccc23)=C(SC2=NC(=O)C3(NN2)c2ccccc2-c2ccccc23)SC2=NC(=O)C3(NN2)c2ccccc2-c2ccccc23)NNC12c1ccccc1-c1ccccc12 | > 10 | > 10 | > 10 | > 10 |  | > 10 | > 10 | > 10 | > 10 | > 10 | 2.95 | > 10 | > 10 | > 10 | > 10 |  | > 10 | > 10 | > 10 | > 10 |
| O=C(O)Cc1c(-c2ccc([N+](=O)[O-])cc2)c(=O)oc2cc(O)ccc12 |  | 55.5 | 88.8 | 93.9 | 70.2 | > 100 | 33.3 | > 100 | 75.7 | > 100 | 26.8 | 73.6 | > 100 | > 100 | 54.6 | 50.7 | 91.3 | 71.9 | > 100 | > 100 |
| COc1cc(C2=C(c3cc(OC)c4ccccc4c3OC)C(=O)c3ccccc3C2=O)c(OC)c2ccccc12 | > 100 |  | > 100 | > 100 | > 100 | > 100 | > 100 | > 100 | > 100 | > 100 | > 100 | > 100 |  | > 100 | > 100 | > 100 | > 100 | > 100 | > 100 | > 100 |
| O=c1[nH]nc(-c2ccccc2)n1Nc1ccccc1 | > 100 | > 100 | > 100 | > 100 | > 100 | > 100 | > 100 | > 100 |  | > 100 | > 100 | > 100 | > 100 | > 100 | > 100 | > 100 | > 100 | > 100 | > 100 | > 100 |
| C=C[C@@]1(C)CC[C@@H]2[C@@]3(C1)O[C@H]3CC1[C@](C)(C(=O)OC)CCC[C@@]12C (stereo partly drawn) | > 100 | 31.6 |  | > 100 | > 100 | 57.2 | 33.7 | 56.8 | 33.2 | 36.8 | 42.2 | 28.1 | 58.1 | 51.7 | 42.1 | 41.4 | 31.6 | 44.2 | > 100 |  |
| C=CCOc1cc(NC(=S)c2ccoc2C)ccc1OC | > 100 | > 100 | > 100 | > 100 | > 100 | > 100 | > 100 | > 100 | > 100 | > 100 | > 100 | > 100 | > 100 |  | > 100 | > 100 | > 100 | > 100 | > 100 |  |
| Cc1ccc(Cc2n[nH]c(=O)n2Nc2ccccc2)cc1 |  | > 100 | > 100 | > 100 | > 100 | > 100 | > 100 | > 100 | > 100 | > 100 | > 100 | > 100 | > 100 | > 100 | > 100 | > 100 | > 100 | > 100 | > 100 | > 100 |
| CCc1cccc(C(C)(C)C)c1NC(=S)N/C=C(/C#N)C(N)=O | > 100 | > 100 | > 100 | > 100 | > 100 | > 100 | > 100 | > 100 | > 100 | > 100 | > 100 | > 100 | > 100 |  | > 100 | > 100 | > 100 | > 100 | > 100 |  |
| CC1CCC2(O)C3(C)CC4(O)OC2(C1O)C1(O)C3(O)C(OC(=O)c2ccc[nH]2)C(O)(C(C)C)C41C (stereo not drawn) | > 100 | > 100 | > 100 | > 100 | > 100 | > 100 | > 100 | > 100 | > 100 | > 100 | > 100 | > 100 | > 100 | > 100 | > 100 | > 100 | > 100 | > 100 | > 100 |  |
| CN(C)c1ccc(/C=C/C(=O)CC(=O)/C=C/c2ccc(N(C)C)cc2)cc1 | > 100 | > 100 | > 100 | > 100 |  |  | > 100 | > 100 | > 100 | > 100 | > 100 | > 100 | > 100 | > 100 | > 100 | > 100 | > 100 | > 100 | > 100 | 76.7 |
| O=C1Nc2ccccc2C1=Nc1cccc2ncccc12 | > 100 |  |  | 42.3 | > 100 | > 100 | > 100 | > 100 | > 100 | > 100 | > 100 | > 100 | > 100 | > 100 | > 100 | > 100 | > 100 | > 100 | > 100 | > 100 |
| COC(=O)C1=C(C)C(=O)[C@]23C(CCCC[C@H]12)C(=O)[C@H](C(=O)OC)C3C (stereo partly drawn) |  | > 100 | > 100 | > 100 |  | > 100 |  | > 100 | > 100 | > 100 | > 100 | > 100 | > 100 | > 100 | > 100 |  | > 100 | > 100 | > 100 | > 100 |
| CC(=O)OCCCC(NC(=O)OC(C)(C)C)C(=O)NC(CCCOC(C)=O)C(=O)NC(Cc1ccc([N+](=O)[O-])cc1)C(=O)NCC(=O)OCc1ccccc1 (stereo not drawn) |  | 33.4 | > 100 | 31.1 |  | 27.3 | 30.1 | 28.6 | 32.2 | 31.9 | > 100 | 32.4 | 27.3 | 43.3 | 41.8 | 29.1 | 32.3 | 32.8 | 29 | 44.6 |
| N#C[C@@H](c1nc2ccccc2s1)c1ncccc1[N+](=O)[O-] | > 31.6 | 28.5 |  | > 100 | > 31.6 | 16.1 | 37.3 | > 31.6 | 17.3 | 17.2 | > 31.6 | 14 | 17.4 | 74.7 | 19.4 | > 31.6 | 12 | 27.6 | > 31.6 |  |
| CC1=NN(c2cccc(Cl)c2)C(=N/c2nc3ccccc3s2)/C1=C\c1ccc(Cl)cc1 | > 100 | 31 | 96.9 |  | 43.9 | 39.3 | 32 | 56.1 | 65.3 | 34 | 73.7 | 30.7 | 49.2 | 64.3 | 50.7 | 34.2 | 35.7 | 60 |  | 81 |
| COc1ccc(/C=C2\NC(=S)N(/C=C3\C(=O)Oc4ccccc4C3=O)C2=O)cc1OC | > 100 | > 100 | > 100 | > 100 | > 100 | > 100 | > 100 | > 100 | > 100 | > 100 | > 100 | > 100 | > 100 | > 100 | > 100 | > 100 | > 100 | > 100 | > 100 |  |
| O=c1c2ccccc2nc(-c2cc3c(cc2Cl)Sc2nccn2S3(=O)=O)n1-c1ccccc1 | 52.2 | 31 |  | 71.1 |  | > 100 | > 100 | 33.8 | 27.5 | 94.6 | > 100 | 29.8 | 38.2 | 49.9 | 46.8 | 43.5 | > 100 | 42.7 | 71.7 | > 100 |
| CC(=O)N1C(OC(C)C)CC(C)N1c1ccccc1 (stereo not drawn) | > 10 | > 10 | > 10 | > 10 |  | > 10 | > 10 | > 10 | > 10 | > 10 | > 10 | > 10 | > 10 | > 10 | > 10 | > 10 |  | > 10 |  | > 10 |
| Fc1ccc(C(OCCN2CCN(CCCCl)CC2)c2ccc(F)cc2)cc1 |  | 42.5 | > 100 | 32.1 | 46.4 | 50.5 | 32.4 | 45 | 41.1 | 94.6 | > 100 | 46.6 | 75.5 | > 100 | 70.8 | 52 | 36.8 | 83.8 | 40.7 | 61.9 |
| CN1CC[C@]23c4c5ccc(O)c4O[C@H]2C(O)CC[C@@]3(O)[C@H]1C5 (stereo partly drawn) |  |  |  | > 100 | > 100 | > 100 | > 100 | > 100 | > 100 | > 100 | > 100 | > 100 | > 100 | > 100 | > 100 | > 100 | > 100 | > 100 | > 100 | > 100 |
| C[C@]12CC[C@@H]3c4ccc(O)cc4CC[C@H]3[C@@H]1CC[C@@H]2OP(=O)(O)O | > 100 | > 100 | > 100 | > 100 | > 100 | > 100 | > 100 | > 100 | > 100 | > 100 | > 100 | > 100 | > 100 | > 100 | > 100 | > 100 | > 100 | > 100 | > 100 |  |

From PubChem BioAssay (NCI)
